Biological target: 5-hydroxytryptamine receptor 2A (Homo sapiens, UniProt P28223)
Assay: Antagonist activity at human 5HT2A receptor expressed in EC80 serotonin-stimulated CHOK1 cells by calcium mobilization assay
Type: functional, cell-based, CHO-K1

Chain of 5-hydroxytryptamine receptor 2A (P28223 whole entry): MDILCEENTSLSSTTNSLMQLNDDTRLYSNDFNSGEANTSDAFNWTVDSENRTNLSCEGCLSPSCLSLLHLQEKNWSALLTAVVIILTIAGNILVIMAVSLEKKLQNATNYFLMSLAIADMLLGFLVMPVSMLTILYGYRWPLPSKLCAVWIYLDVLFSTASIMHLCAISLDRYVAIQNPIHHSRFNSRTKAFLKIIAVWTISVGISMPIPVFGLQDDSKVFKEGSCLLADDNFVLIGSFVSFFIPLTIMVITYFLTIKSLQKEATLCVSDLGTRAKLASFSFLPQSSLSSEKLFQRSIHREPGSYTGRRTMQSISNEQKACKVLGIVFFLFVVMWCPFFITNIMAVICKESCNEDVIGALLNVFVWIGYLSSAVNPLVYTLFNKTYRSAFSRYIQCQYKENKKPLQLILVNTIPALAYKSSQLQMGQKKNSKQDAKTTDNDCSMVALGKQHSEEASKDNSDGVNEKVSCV

IC50: 4.6 µM
SMILES: COc1cc2c3c(c1OCc1ccccc1)-c1cc4c(cc1CC3N(C)CC2)OCO4 (stereo unspecified)

— ChEMBL document CHEMBL1138595, “(+/-)-Nantenine analogs as antagonists at human 5-HT(2A) receptors: C1 and flexible congeners” (Bioorg Med Chem Lett, 2009)
